Data set [1] deals with MIA PaCa-2. The data set can be described thus: Induction of intracellular ROS generation in human MIA PaCa-2 cells at 0.1 to 5 uM incubated for 96 hrs by DCFH-DA staining based flow cytometry. In kind it is functional, cell-based. As to conditions: dose 0.1-5 µM.
Data set [2] can be described thus: Antiproliferative activity against HUVEC cells assessed as cell viability measured after 168 hrs incubation by SRB assay. It counts as toxicity, cell-based. The conditions noted are these: human. On the technique in general: In SRB staining, fixed cells bind dye roughly in proportion to their protein.
Data set [3] in a line: Toxicity in BALB/c mouse xenografted with human MIA PaCa-2 cells assessed as pathological change in lung at 100 mg/kg, iv once daily for 25 consecutive day after 2 weeks of cells injection by H and E staining based optical microscopic analysis. It counts as organism-based. The conditions noted are these: in vivo, 336 h. In general terms: Xenograft models place foreign cells or tissue in a host animal.

Data set [4] concerns MIA PaCa-2. The data set can be described thus: Reduction in number of mitochondria in human MIA PaCa-2 cells measured after 96 hrs by Mito-Tracker Green and DAPI staining based assay. It counts as functional, cell-based. As to conditions: dose 10-1000 nM.
Data set [5] has as its system MIA PaCa-2. In words: Antiproliferative activity against human MIA PaCa-2 cells assessed as cell viability measured after 168 hrs incubation by SRB assay. In kind it is functional, cell-based. The conditions noted are these: MIA PaCa-2, 168 h.
For data set [6], the system named is MIA PaCa-2. In words: Effect on mitochondrial membrane potential loss in human MIA PaCa-2 cells assessed as change in membrane potential at 0.1 to 5 uM incubated for 96 hrs by JC-1 staining based flow cytometry analysis. It counts as functional, cell-based. As to conditions: dose 0.1-5 µM. (In flow cytometry, cells or beads pass a laser one at a time.)
In the next data set the test system is PANC-1. The data set can be described thus: Antiproliferative activity against human PANC-1 cells assessed as cell viability measured after 168 hrs incubation by SRB assay. As to conditions: PANC-1, 168 h. In kind it is functional, cell-based.
The nature of data set [7]: Toxicity in BALB/c mouse xenografted with human MIA PaCa-2 cells assessed as pathological change in liver at 100 mg/kg, iv once daily for 25 consecutive day after 2 weeks of cells injection by H and E staining based optical microscopic analysis. In kind it is organism-based. As to conditions: in vivo, 336 h.
Data set [8] is described as follows: Antiproliferative activity against human […] cells assessed as cell viability measured after 168 hrs incubation by SRB assay. In kind it is functional, cell-based.
The subject of data set [9] is MIA PaCa-2. In words: In vivo antitumor activity against human MIA PaCa-2 cells xenografted in BALB/c mouse assessed as reduction in tumor weight at 100 mg/kg, iv once daily for 25 consecutive day after 2 weeks of cells injection relative to control. It counts as functional. The conditions noted are these: MIA PaCa-2, 600 h, time 25 day.
The target of data set [10] is DNA-directed RNA polymerase, mitochondrial (Homo sapiens) (UniProt O00411). The data set can be described thus: Inhibition of human POLRMT in human MIA PaCa-2 cells assessed as mitochondria coded ubiquinone oxidoreductase core subunit 1 (ND I) transcript level at 500 nM measured after 24 hrs by RT-qPCR analysis relative to control. Further details: scale not given: the % may be the effect or the level left.
Sequence of DNA-directed RNA polymerase, mitochondrial (Homo sapiens) (O00411 whole entry): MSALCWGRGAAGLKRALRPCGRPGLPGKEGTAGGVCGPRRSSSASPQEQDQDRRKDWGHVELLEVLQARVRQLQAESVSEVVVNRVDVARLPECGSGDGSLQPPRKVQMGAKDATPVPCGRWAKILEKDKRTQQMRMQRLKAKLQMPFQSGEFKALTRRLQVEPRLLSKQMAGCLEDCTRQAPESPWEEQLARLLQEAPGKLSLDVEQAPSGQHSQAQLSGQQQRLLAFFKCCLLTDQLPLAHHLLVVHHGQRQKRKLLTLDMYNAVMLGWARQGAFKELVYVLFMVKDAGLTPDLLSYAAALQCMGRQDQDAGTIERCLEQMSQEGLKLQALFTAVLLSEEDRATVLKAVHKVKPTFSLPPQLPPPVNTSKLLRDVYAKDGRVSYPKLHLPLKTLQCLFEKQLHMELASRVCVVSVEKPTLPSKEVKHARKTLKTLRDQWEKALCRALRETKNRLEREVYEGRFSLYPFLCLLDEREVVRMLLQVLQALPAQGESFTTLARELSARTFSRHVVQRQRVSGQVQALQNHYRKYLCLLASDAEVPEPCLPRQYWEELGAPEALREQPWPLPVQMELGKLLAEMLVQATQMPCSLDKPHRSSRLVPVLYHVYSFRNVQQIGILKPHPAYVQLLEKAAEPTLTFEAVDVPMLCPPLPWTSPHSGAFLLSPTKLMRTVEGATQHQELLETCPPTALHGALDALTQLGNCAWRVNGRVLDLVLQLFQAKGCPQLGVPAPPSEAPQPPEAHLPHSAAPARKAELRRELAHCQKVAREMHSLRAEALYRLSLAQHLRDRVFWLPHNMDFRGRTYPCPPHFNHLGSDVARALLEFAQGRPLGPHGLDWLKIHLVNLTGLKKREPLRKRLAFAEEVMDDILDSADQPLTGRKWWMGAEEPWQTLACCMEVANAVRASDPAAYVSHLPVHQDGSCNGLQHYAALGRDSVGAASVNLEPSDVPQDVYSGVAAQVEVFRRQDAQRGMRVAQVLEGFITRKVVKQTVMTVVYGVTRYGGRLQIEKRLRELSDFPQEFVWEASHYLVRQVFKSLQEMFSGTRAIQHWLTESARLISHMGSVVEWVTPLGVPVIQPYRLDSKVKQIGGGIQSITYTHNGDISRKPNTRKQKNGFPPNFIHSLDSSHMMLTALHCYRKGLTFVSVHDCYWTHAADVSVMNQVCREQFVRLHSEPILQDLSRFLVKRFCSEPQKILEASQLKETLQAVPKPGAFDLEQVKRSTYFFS

Data set [11] in a line: Toxicity in BALB/c mouse xenografted with human MIA PaCa-2 cells assessed as pathological change in kidney at 100 mg/kg, iv once daily for 25 consecutive day after 2 weeks of cells injection by H and E staining based optical microscopic analysis. It counts as organism-based. The conditions noted are these: in vivo, 336 h.
The next data set relates to CAPAN-1. The data set can be described thus: Antiproliferative activity against human CAPAN-1 cells assessed as cell viability measured after 168 hrs incubation by SRB assay. It counts as functional, cell-based. The conditions noted are these: CAPAN-1, 168 h.
Data set [12] in a line: Toxicity in BALB/c mouse xenografted with human MIA PaCa-2 cells assessed as pathological change in spleen at 100 mg/kg, iv once daily for 25 consecutive day after 2 weeks of cells injection by H and E staining based optical microscopic analysis. In kind it is organism-based. The conditions noted are these: in vivo, 336 h.
Data set [13] in a line: Toxicity in BALB/c mouse xenografted with human MIA PaCa-2 cells assessed as pathological change in heart at 100 mg/kg, iv once daily for 25 consecutive day after 2 weeks of cells injection by H and E staining based optical microscopic analysis. It counts as organism-based. The conditions noted are these: in vivo, 336 h.
The subject of data set [14] is MIA PaCa-2. In words: Potency index, ratio of IMT1B IC50 to test compound […] for antiproliferative activity against human MIA PaCa-2 cells assessed as cell viability measured after 168 hrs incubation by SRB assay. In kind it is functional.

Consider 30 compounds from ChEMBL document CHEMBL5550206, “Identification of 6-Fluorine-Substituted Coumarin Analogues as POLRMT Inhibitors with High Potency and Safety for Treatment of Pancreatic Cancer” (J Med Chem, 2024).

Activity calls are given as the source filed them. The rule behind the calls is not given here.

For the compound `C[C@@H](Oc1ccc2c(-c3ccc(F)cc3Cl)cc(=O)oc2c1)C(=O)N1CCC[C@H](C(=O)O)C1`, the outcome in the data set on MIA PaCa-2 [1] and in the data set on MIA PaCa-2 [6] was inactive. Also, the IC50 (commonly the point on the concentration scale where inhibition reaches its midpoint) at 168 h in data set [2] is above 50000 nM. Moreover, the Activity entry was “Non-Toxic” in [3]; “Dose-Dependent Effect” in the data set with MIA PaCa-2 [4]; “Non-Toxic” in data set [7]; 23% in [10]; “Non-Toxic” in data set [11]; “Non-Toxic” in [12]. Moreover, the Activity result in data set [13] is reported as “Non-Toxic”. Moreover, the IC50 is 159 nM in the data set on MIA PaCa-2 [5], 1570 nM with PANC-1, 67 nM in data set [8] and 1350 nM in the data set on CAPAN-1. Moreover, in the data set with MIA PaCa-2 [9], the inhibition in vivo (as a rule, the share of the control response that was lost under treatment) at 100 mg/kg was determined as 44.8%.
Consider `CCN(CC)C(=O)[C@@H](C)Oc1cc2oc(=O)cc(-c3cccc(Cl)c3)c2cc1F`, for which the IC50 with MIA PaCa-2 [5] was determined as 3240 nM. Also, the Activity in [10] amounted to 60%.
As for `CCN(CC)C(=O)[C@@H](C)Oc1cc2oc(=O)cc(-c3ccccc3F)c2cc1F`, the IC50 in the data set with MIA PaCa-2 [5] is 400 nM. Moreover, the Activity in data set [10] amounted to 30%.
The matching figures for `CCN(CC)C(=O)[C@@H](C)Oc1cc2oc(=O)cc(-c3cccc4ccccc34)c2cc1F`: 739 nM and 42%.
In the same order, the values of `C[C@@H](Oc1cc2oc(=O)cc(-c3ccc(F)cc3Cl)c2cc1F)C(=O)N1CCC(F)CC1` are 115 nM and 19%.
Take `C[C@@H](Oc1cc2oc(=O)cc(-c3ccc(F)cc3Cl)c2cc1F)C(=O)N1CCCCC1`: the half-inhibitory concentration (IC50) in the data set on MIA PaCa-2 [5] turned out to be 78 nM. Besides, the Activity in data set [10] came out at 16%.
On to `C[C@@H](Oc1cc2oc(=O)cc(-c3ccc(F)cc3Cl)c2cc1Cl)C(=O)N1CCC[C@H](C(=O)O)C1`, for which the Activity in data set [10] was found to be 30%.
Take `C[C@@H](Oc1cc2oc(=O)cc(-c3ccc(F)cc3Cl)c2cc1F)C(=O)N1CCC(Cl)CC1`: the IC50 in the data set with MIA PaCa-2 [5] is 523 nM. In addition, the Activity in data set [10] was found to be 34%.
In the same order, the values of `CCN(CC)C(=O)[C@@H](C)Oc1cc2oc(=O)cc(-c3ccccc3Cl)c2cc1F` are 14 nM and 10%.
With `C[C@@H](Oc1cc2oc(=O)cc(-c3ccc(F)cc3Cl)c2cc1F)C(=O)NCC1CC1`, in the data set on MIA PaCa-2 [5], the IC50 worked out at 294 nM. Also, the Activity in data set [10] was determined as 26%.
In the same order, the values of `CCN(CC)C(=O)[C@@H](C)Oc1cc2oc(=O)cc(-c3ccc(Cl)cc3)c2cc1F` are 2240 nM and 55%.
On to `C[C@@H](Oc1cc2oc(=O)cc(-c3ccc(F)cc3Cl)c2cc1F)C(=O)NCCC#N`, for which the IC50 in the data set with MIA PaCa-2 [5] amounted to 1160 nM. Further, the Activity in data set [10] is 51%.
The matching figures for `CCN(CC)C(=O)[C@@H](C)Oc1cc2oc(=O)cc(-c3ccccc3OC)c2cc1F`: 1130 nM and 48%.
The matching figures for `C[C@@H](Oc1cc2oc(=O)cc(-c3ccc(F)cc3Cl)c2cc1F)C(=O)N1CCC1`: 493 nM and 33%.
Turning to `C[C@@H](Oc1cc2oc(=O)cc(-c3ccc(F)cc3Cl)c2cc1F)C(=O)N1CCC[C@H](C(=O)O)C1`, in the data set with MIA PaCa-2 [5], the IC50 was 145 nM. Also, the Activity in [10] turned out to be 22%.
The matching figures for `C[C@@H](Oc1cc2oc(=O)cc(-c3ccc(F)cc3Cl)c2cc1F)C(=O)N1CCCOCC1`: 72 nM and 15%.
The matching figures for `C[C@@H](Oc1cc2oc(=O)cc(-c3ccc(F)cc3Cl)c2cc1F)C(=O)N1CCC(F)(F)CC1`: 377 nM and 28%.
As for `C[C@@H](Oc1cc2oc(=O)cc(-c3ccc(F)cc3Cl)c2cc1F)C(=O)N(C)C`, the IC50 with MIA PaCa-2 [5] was 171 nM. Also, the Activity in [10] was 25%.
As to `C[C@@H](Oc1cc2oc(=O)cc(-c3ccc(F)cc3Cl)c2cc1F)C(=O)N(C)C1COC1`, in the data set on MIA PaCa-2 [5], the IC50 stood at 1690 nM. The Activity in [10] was found to be 50%.
Regarding `C[C@@H](Oc1cc2oc(=O)cc(-c3ccc(F)cc3Cl)c2cc1F)C(=O)N1CCCC1`, the IC50 in the data set on MIA PaCa-2 [5] came out at 456 nM. Also, the Activity in [10] was 35%.
The matching figures for `C[C@@H](Oc1ccc2c(-c3ccc(F)cc3Cl)cc(=O)oc2c1Cl)C(=O)N1CCC[C@H](C(=O)O)C1`: above 5000 nM and 119%.
Consider `C[C@@H](Oc1cc2oc(=O)cc(-c3ccc(F)cc3Cl)c2cc1F)C(=O)N1CCCC(C#N)C1` (stereo partly drawn), for which the IC50 in the data set on MIA PaCa-2 [5] stood at 305 nM. The Activity in data set [10] came to 26%.
On to `CC(C)c1cc2c(-c3ccc(F)cc3Cl)cc(=O)oc2cc1O[C@H](C)C(=O)N1CCC[C@H](C(=O)O)C1`, for which, in the data set on MIA PaCa-2 [5], the IC50 turned out to be 1090 nM. The Activity in [10] came out at 46%.
In the same order, the values of `CCN(CC)C(=O)[C@@H](C)Oc1cc2oc(=O)cc(-c3ccccc3)c2cc1F` are 682 nM and 44%.
As for `C[C@@H](Oc1cc2oc(=O)cc(-c3ccc(F)cc3Cl)c2cc1F)C(=O)NCC(F)F`, the IC50 in the data set with MIA PaCa-2 [5] is 139 nM. For the same compound, the Activity in [10] was found to be 22%.
The matching figures for `CC1CCN(C(=O)[C@@H](C)Oc2cc3oc(=O)cc(-c4ccc(F)cc4Cl)c3cc2F)CC1`: 486 nM and 31%.
The matching figures for `COc1cc2c(-c3ccc(F)cc3Cl)cc(=O)oc2cc1O[C@H](C)C(=O)N1CCC[C@H](C(=O)O)C1`: above 5000 nM and 67%.
As to `CCN(CC)C(=O)[C@@H](C)Oc1cc2oc(=O)cc(-c3ccc(F)cc3Cl)c2cc1F`, the “Ratio IC50” value in the data set on MIA PaCa-2 [14] worked out at 3. The IC50 in the data set with MIA PaCa-2 [5] amounted to 44 nM. Besides, the Activity in data set [10] worked out at 13%.
As for `CO[C@H]1CC[C@@H](NC(=O)[C@@H](C)Oc2cc3oc(=O)cc(-c4ccc(F)cc4Cl)c3cc2F)CC1`, the half-inhibitory concentration (IC50) with MIA PaCa-2 [5] stood at 2230 nM. Besides, the Activity in [10] was determined as 52%.
As to `C[C@@H](Oc1cc(Cl)c2c(-c3ccc(F)cc3Cl)cc(=O)oc2c1)C(=O)N1CCC[C@H](C(=O)O)C1`, the IC50 in the data set on MIA PaCa-2 [5] is above 5000 nM. In addition, the Activity in [10] is 85%.
